Measured values taken from PMC10962542, “Inhibition of Aurora‐A/N‐Myc Protein–Protein Interaction Using Peptidomimetics: Understanding the Role of Peptide Cyclization” (Chembiochem, 2023).
Marks after values point to notes of the source that are not given here. Where a SMILES comes first, the peptide text is derived from it. Bridges are numbered along the chain shown (N, C = ends).

Key:
N‐Myc protein levels = conditions: cited from earlier work
Source text: (§1) Similarly, Weiss and co‐workers developed a series of conformation‐disrupting Aurora‐A inhibitors based on diaminopyrimidine and pyrazolopyrimidine scaffolds, such as CD532.[8]

Aurora‐A and N‐Myc = conditions: in comparison to established allosteric Aurora‐A inhibitors; cited from earlier work
Source text: as §1

[1] = tested on: N‐Myc/Aurora‐A interaction; conditions: competition co‐precipitation; cited from earlier work
Source text: as §1

circular dichroism = assay: circular dichroism; set-up: unit not given here; conditions: 25 mM Tris, 150 mM NaCl, 5 mM MgCl2; pH 7.5; 5 °C; 30-120 uM
[2] = biological target: T1, N‐Myc/Aurora‐A interaction (Aurora‐A122‐403‐C290A/C393A) (Homo sapiens, UniProt O14965, C290A/C393A); assay: competition fluorescence anisotropy (FA) assay against fluorescein labelled N‐Myc61‐89; format: binding; conditions: SD; note: equilibrated 2 h at room temperature
T1 construct: Aurora‐A 122‐403‐C290A/C393A protein was produced as described previously; made in house
T1 sequence (O14965 122-403 C290A/C393A): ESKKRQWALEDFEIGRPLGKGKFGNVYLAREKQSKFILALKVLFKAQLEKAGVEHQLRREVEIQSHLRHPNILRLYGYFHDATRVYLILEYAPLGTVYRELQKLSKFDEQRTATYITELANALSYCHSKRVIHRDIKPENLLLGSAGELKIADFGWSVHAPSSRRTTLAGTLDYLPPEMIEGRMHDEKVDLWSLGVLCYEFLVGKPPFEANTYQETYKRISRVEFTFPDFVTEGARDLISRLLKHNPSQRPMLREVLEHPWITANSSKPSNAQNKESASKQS

[3] = circular dichroism (CD) spectroscopy; format: physicochemical; conditions: 150 mM NaCl, 5 mM MgCl2, pH 7.5, 5 °C, n=2, free‐thiol (red) samples with 5 mol equivalents TCEP; for MRE222 (mean residue ellipticity at 222 nm): 25 mM Tris, mean ± SD, SD; for % Helicity (estimated): from MRE222 by equation 7, 25 mM Tris
How it was run: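 Peptides at 30–120 μM in 25 mM Tris, 150 mM NaCl, 5 mM MgCl2, pH 7.5 (plus 5 mol eq. TCEP for free sulfhydryl peptides) were scanned in duplicate at 5 °C from 290 to 180 nm, 1 mm pathlength. Buffer-subtracted ellipticity gave mean residue ellipticity, and % helicity was estimated from MRE at 222 nm.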

IC50 [2] [µM] | MRE222 (mean residue ellipticity at 222 nm) [3] | % Helicity (estimated) [3] [%] | Molecule | N‐Myc protein levels in xenographs (N‐Myc protein levels) | degradation of Aurora‐A and N‐Myc (Aurora‐A and N‐Myc) | disruption of the N‐Myc/Aurora‐A interaction [1] | helicity (circular dichroism)
 |  |  | O=C(Nc1ccc(Nc2nccc(Nc3cc(C4CCCC4)[nH]n3)n2)cc1)Nc1cccc(C(F)(F)F)c1 [CD532] | reduced N‐Myc protein levels |  |  | 
 |  |  | CN(C)C(=O)c1cc2cnc(Nc3ccc(C(=O)NCCCCCCOc4cccc5c4C(=O)N(C4CCC(=O)NC4=O)C5=O)cc3)nc2n1C1CCCC1 (stereo not drawn) [HLB‐0532259] |  | promote degradation of Aurora‐A and N‐Myc with superior potency |  | 
 |  |  | O=C(O)c1ccc(Nc2ncc3c(n2)-c2ccc(Cl)cc2C(c2c(F)cccc2F)=NC3)cc1 [MLN8054] |  |  | disrupted | 
130 ± 9 | −5255±217 deg cm^−1 dmol^−1 res^−1 | 15±1 | CSCC[C@H](NC(=O)[C@H](CCC(=O)O)NC(=O)[C@@H](NC(=O)[C@@H](NC(=O)[C@H](Cc1c[nH]c2ccccc12)NC(=O)[C@H](CO)NC(=O)[C@@H]1CCCN1C(=O)[C@@H]1CCCN1C(=O)[C@H](CCC(=O)O)NC(C)=O)C(C)C)[C@@H](C)O)C(=O)N[C@@H](CC(C)C)C(=O)N[C@@H](CC(C)C)C(=O)N[C@@H](CCC(=O)O)C(=O)N[C@H]1CSSC[C@@H](C(=O)N[C@@H](CO)C(=O)N2CCC[C@H]2C(=O)N[C@@H](C)C(=O)N[C@@H](CCC(=O)O)C(=O)N[C@@H](CCC(=O)O)C(N)=O)NC(=O)[C@H](Cc2c[nH]c3ccccc23)NC(=O)[C@H](CC(C)C)NC(=O)[C@H](CCC(=O)O)NC1=O [N‐Myc73‐94‐N85C/G89C (ox)] (Ac-EPPSWVTEMLLECELWCSPAEE-NH2; disulfide 13-17) |  |  |  | -5260
123 ± 10 | −4383±64^[e] deg cm^−1 dmol^−1 res^−1 | 13±1 | CSCC[C@H](NC(=O)[C@H](CCC(=O)O)NC(=O)[C@@H](NC(=O)[C@@H](NC(=O)[C@H](Cc1c[nH]c2ccccc12)NC(=O)[C@H](CO)NC(=O)[C@@H]1CCCN1C(=O)[C@@H]1CCCN1C(=O)[C@H](CCC(=O)O)NC(C)=O)C(C)C)[C@@H](C)O)C(=O)N[C@@H](CC(C)C)C(=O)N[C@@H](CC(C)C)C(=O)N[C@@H](CCC(=O)O)C(=O)N[C@@H](CS)C(=O)N[C@@H](CCC(=O)O)C(=O)N[C@@H](CC(C)C)C(=O)N[C@@H](Cc1c[nH]c2ccccc12)C(=O)N[C@@H](CS)C(=O)N[C@@H](CO)C(=O)N1CCC[C@H]1C(=O)N[C@@H](C)C(=O)N[C@@H](CCC(=O)O)C(=O)N[C@@H](CCC(=O)O)C(N)=O [N‐Myc73‐94‐N85C/G89C (red)] (Ac-EPPSWVTEMLLECELWCSPAEE-NH2) |  |  |  | -4380
215 ± 11 | −4342±142 deg cm^−1 dmol^−1 res^−1 | 14±1 | Ac-SWVTEMLLENELWG-NH2 [N‐Myc76‐89] |  |  |  | -4340
